According to EP2604624A1, “Bowman-Birk protease Inhibitor (BBI) binding peptides, and uses thereof in the separation, detection or purification of BBI” (University College Dublin National University Of Ireland, …, priority 2011, dated 2013):

Tests used:
Conditions in all cases: biotinylated peptide 0 to 200 µg.mL, streptavidin-HRP detection
soy whey = system: soy whey
Description: (§1) The C-terminus was elongated with a GGGS-CONH2 tail to mimic the GGGS-peptide spacer between the random peptide sequence and the phage protein pIII and to block the negative charge of the carboxyl terminus. […] All synthetic peptides were reconstituted in sterile deionised H2O to a concentration of 2 mg/mL. The ability of biotinylated synthetic peptides (from 0 to 200 µg.mL) to bind to the immobilized purified Bowman-Birk inhibitor, soy pulp and soy whey extracts (and BSA as a negative control) was analyzed in solid phase assays. In this case, the biotinylated synthetic peptides were incubated on BBI coated wells (100 µg.mL) and detected using a streptavidin-HRP conjugate (1:500). Binding and absorbance readings are finally carried out using the TMB substrate as described before.

BBI = system: BBI
Description: as §1

soy pulp = system: soy pulp
Description: as §1

GAMHLPWHMGTLGGGS-1,2-diaminoethane-biotin [peptide 1]
Dose-dependent binding: binding to soy whey (soy whey) | binding to BBI (BBI) | binding to soy pulp (soy pulp)
